Results reported in patent US20170121295A1, “POLYCYCLIC LPA1 ANTAGONIST AND USES THEREOF” (AMIRA PHARMACEUTICALS, INC., priority 2010, published 2017).
Where two headings read alike, the source gives them in different places. One block for each molecule: values may come before it.

How the values were obtained:
Human LPA1 = biological target: T1, Human LPA1 (Homo sapiens, UniProt Q92633); assay: LPA1 Calcium Flux Assay; assay type: cell-based; conditions: human LPA1 expressing CHO cells, 10 nM LPA; read-out: Ca Flux IC50 LPA1
T1 construct: the full-length cDNA for human LPA1 was obtained by PCR of the reverse transcription reaction; expressed in transfected cells
T1 sequence (Q92633 whole entry): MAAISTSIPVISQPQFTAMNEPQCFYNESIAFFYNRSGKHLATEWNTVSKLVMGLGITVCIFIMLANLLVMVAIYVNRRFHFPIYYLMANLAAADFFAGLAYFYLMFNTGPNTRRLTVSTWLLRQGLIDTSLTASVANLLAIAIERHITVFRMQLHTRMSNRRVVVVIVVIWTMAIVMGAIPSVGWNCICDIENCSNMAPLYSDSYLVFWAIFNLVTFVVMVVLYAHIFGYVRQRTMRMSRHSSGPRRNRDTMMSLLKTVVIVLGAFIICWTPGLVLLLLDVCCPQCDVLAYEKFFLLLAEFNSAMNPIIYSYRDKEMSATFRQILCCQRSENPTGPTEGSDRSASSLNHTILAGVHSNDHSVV
Method: A 1.1 kb cDNA encoding the human LPA1 receptor was cloned from human lung. Human lung RNA (Clontech Laboratories, Inc. USA) was reverse transcribed using the RETROscript kit (Ambion, Inc.) and the full-length cDNA for human LPA1 was obtained by PCR of the reverse transcription reaction. The nucleotide sequence of the cloned human LPA1 was determined by sequencing and confirmed to be identical to the published human LPA1 sequence (An et al. Biochem. Biophys. Res. Commun. 231:619 (1997). The cDNA was cloned into the pCDNA5/FRT expression plasmid and transfected in CHO cells using lipofectamine 2000 (Invitrogen Corp., USA). Clones stably expressing human LPA1 were selected using hygromycin and identified as cells that show Ca-influx in response to LPA.
(§1) Human LPA1 or LPA3 expressing CHO cells are seeded at 20,000-45,000 cells per well in a 96-well poly-D-lysine coated plate one or two days before the assay. Prior to the assay, the cells are washed once with PBS and then cultured in serum-free media overnight. On the day of the assay, a calcium indicator dye (Calcium 4, Molecular Devices) in assay buffer (HBSS with Ca^2+ and Mg^2+ and containing 20 mM Hepes and 0.3% fatty-acid free human serum albumin) is added to each well and incubation continued for 1 hour at 37° C. 10 μl of test compound in 2.5% DMSO are added to the cells and incubation continued at room temperature for 30 minutes. Cells are the stimulated by the addition of 10 nM LPA and intracellular Ca^2+ measured using the Flexstation 3 (Molecular Devices). IC50s are determined using Graphpad prism analysis of drug titration curves.

Human LPA3 = biological target: T2, Human LPA3 (Homo sapiens, UniProt Q9UBY5); assay: LPA3 Calcium Flux Assay; assay type: cell-based; conditions: human LPA3 expressing CHO cells, 10 nM LPA; read-out: Ca Flux IC50 LPA3
T2 construct: The full-length cDNA fragment for human LPA3 was obtained by PCR from the vector
T2 sequence (Q9UBY5 1-353): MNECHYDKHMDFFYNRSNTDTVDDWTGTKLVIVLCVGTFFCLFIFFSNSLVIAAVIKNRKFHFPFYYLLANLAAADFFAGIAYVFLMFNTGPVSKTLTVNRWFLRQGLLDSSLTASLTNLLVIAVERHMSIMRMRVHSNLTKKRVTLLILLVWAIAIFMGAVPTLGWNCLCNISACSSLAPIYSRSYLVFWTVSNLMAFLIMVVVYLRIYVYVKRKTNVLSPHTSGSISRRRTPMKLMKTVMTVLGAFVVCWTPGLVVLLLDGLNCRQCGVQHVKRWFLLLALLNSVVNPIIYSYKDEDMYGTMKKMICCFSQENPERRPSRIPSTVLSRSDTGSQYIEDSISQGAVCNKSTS
Method: A vector containing the human LPA3 receptor cDNA was obtained from the Missouri S&T cDNA Resource Center (www.cdna.org). The full-length cDNA fragment for human LPA3 was obtained by PCR from the vector. The nucleotide sequence of the cloned human LPA3 was determined by sequencing and confirmed to be identical to the published human LPA3 sequence (NCBI accession number NM_012152). The cDNA was cloned into the pCDNA5/FRT expression plasmid and transfected in CHO cells using lipofectamine 2000 (Invitrogen Corp., USA). Clones stably expressing human LPA3 were selected using hygromycin and identified as cells that show Ca-influx in response to LPA.
as §1

[1] = Thermodynamic aqueous solubility; assay type: physicochemical; conditions: water, 25 °C, thermodynamic from solid, equilibrated at 25° C. for 24 hours, read-out: Solubility (mg/ml, free form equivalent)
Method: Aqueous solubility was determined by suspending sufficient compound in water to give a maximum final concentration of ≧10 mg·ml−1 of the parent free-form of the compound. The suspension was equilibrated at 25° C. for 24 hours then the pH was measured. The suspension was then filtered through a glass fiber C filter into a 96 well plate unless stated otherwise. The filtrate was then diluted by a factor of 101. Quantification was by HPLC with reference to a standard solution of approximately 0.25 mg·ml^−1 in DMSO. Different volumes of the standard, diluted and undiluted sample solutions were injected. The solubility was calculated using the peak areas determined by integration of the peak found at the same retention time as the principal peak in the standard injection.
Analysis was performed on an Agilent HP1100 series system equipped with a diode array detector and using ChemStation software vB.02.01-SR1.

[2] = Pharmacokinetics in Sprague-Dawley Rats; assay type: in vivo; conditions: for half-life: Sprague-Dawley, rat, plasma; for dose normalized exposure: oral, 10 mg/kg
Method: The pharmacokinetics of Compound 1 and Compound 2 was assessed in male and female Sprague-Dawley rats (225-300 g at 10 weeks).
Compound 2 (1 mg/kg) was administered intravenously (IV) to fasted rats (n=3) as a solution in purified water via a bolus injection into the jugular vein (1 mg/mL; 1 mL/kg). Compound 1 (10 mg/kg) was administered orally (PO), to fasted (for at least 12 hours) or non-fasted rats (n=2 or 3) as a solution in 0.5% methylcellulose unless otherwise noted via an oral gavage to the stomach (3.33 mg/mL; 3 mL/kg). Non-fasted animals were fasted for at least 12 hours and then were given food ad libitum for 1 hour prior to dosing. Fasted animals were dosed 1, 10, 30, 100 or 300 mg/kg Compound 1 as a solution in 0.5% methylcellulose via an oral gavage to the stomach (0.69 mg/mL, 10 mg/mL, 33.3 mg/mL or 100 mg/mL) (n=2 or 3 per dose group). In a gastrointestinal study, rats were anesthetized and Compound 1 was administered directly to the duodenum, jcjunum or ilcum at 1 mg/kg in 0.5% methylcellulose.
Capsules were also administered with Compound 2. Capsules were size 9 gelatin (Torpac, San Diego, Calif.).
(§2) Blood samples (approximately 300 μL total blood) were taken from each rat via the jugular vein cannula at pre-dose, and an initial time of 5 or 15 min and then various time points up to 24 hours post-dose (10-11 samples per animal). Samples were collected on wet ice in tubes containing potassium EDTA. After each blood draw, the cannula was flushed with an equivalent volume of heparinized saline (0.1 mL at 40 units/mL). Plasma samples, prepared by centrifugation of whole blood, were stored frozen (−80° C.) prior to analysis.

[3] = Pharmacokinetics in Male Beagle Dogs; assay type: in vivo; conditions: for bioavailability: po, 5 mg/kg, read-out: apparent oral bioavailability
Method: The pharmacokinetics of Compound 1 and Compound 2 was assessed in male Beagle dogs.
Dosing of male Beagle dogs (n=3) was performed. Compound 1 or Compound 2 was dosed intravenously at 2 mg/kg (fasted) and orally (fasted or non-fasted) at 5 mg/kg. In fasted animals, food was withheld a minimum of 12 hours prior to dosing and then returned 4 hours post-dose. Non-fasted animals were allowed to feed 1 hour prior to dosing ad libitum. Compound 2 capsules were given by oral gavage in the fasted state. Plasma samples were collected by Perry Scientific study personnel.
The capsules are noted in Table 25 below. Capsules were size 0 gelatin (Capsugel, Peapack, N.J.). Tablet formulations are noted in Example 24.
For the clinical drug product oral solution of active agent (1.67 mg/mL), sucralose (0.5% w/w) and cherry flavor (0.5% w/w) is added to the formulation as a sweetener and taste masking agent, respectively to a 0.5% methocel aqueous solution.
as §2, with “1 mL” for “300 μL”, “dog” for “rat via the jugular vein cannula”

[4] = test system: highly peritoneal metastatic pancreatic cancer cell line; conditions: LPA-induced and ascites-induced; cited from earlier work
renal fibrosis = conditions: compared with LPA1 (−/−) mice; cited from earlier work
[5] = test system: pancreatic cancer cell lines; conditions: in response to LPA and peritoneal fluid (ascites) from pancreatic cancer patients; cited from earlier work
[6] = male, Beagle, dog, plasma, oral 5 mg/kg, fasted state

IC50 (Human LPA1): < 200 nM
IC50 (Human LPA3): > 1000 nM
SMILES: Cc1noc(-c2ccc(-c3ccc(C4(C(=O)O)CC4)cc3)cc2)c1NC(=O)OC(C)c1ccccc1 (racemic) [Racemic Compound 1]

solubility at 24 h [1]: ≥ 10 mg/mL
volume of distribution ([2]; IV 1 mg/kg): approximately two-fold total body water
half-life ([2]; female, IV 1 mg/kg, females): 3.2 h
half-life ([2]; male, IV 1 mg/kg, males): 3.8 h
dose normalized exposure [2]: 2.4 µg·h/mL
dose normalized exposure ([2]; in a gelatin capsule): 2.1 µg·h/mL
effect of food on absorption ([3]; dog, fasted vs fed): food has little effect on the absorption
decrease of AUC ([3]; dosed as a capsule form, fasted): 2.5 fold
bioavailability ([3]; male, Beagle, dog, plasma, dosed as a capsule form, fasted): 24%
bioavailability ([3]; male, Beagle, dog, plasma, human dose solution): 57%
bioavailability [3, 6]: 63%
bioavailability ([3]; male, Beagle, dog, plasma, oral 5 mg/kg, fed state): 60%
bioavailability ([3]; male, Beagle, dog, plasma, tablet formulation (first of two)): 100%
bioavailability ([3]; male, Beagle, dog, plasma, tablet formulation (second of two)): 52%
Vd ([3]; male, Beagle, dog, plasma, IV 2 mg/kg, read-out: estimated volume of distribution): 0.6 L/kg
clearance ([3]; male, Beagle, dog, plasma, IV 2 mg/kg, read-out: systemic clearance): 10.5 mL/min/kg
half-life ([3]; male, Beagle, dog, plasma, IV 2 mg/kg, read-out: terminal half-life (converted)): 3.9 h
Cmax [3, 6]: 5500 ng/mL
SMILES: Cc1noc(-c2ccc(-c3ccc(C4(C(=O)[O-])CC4)cc3)cc2)c1NC(=O)O[C@H](C)c1ccccc1.[Na+] [Compound 2, 1-{4′-[3-methyl-4-((R)-1-phenyl-ethoxycarbonylamino)-isoxazol-5-yl]-biphenyl-4-yl}-cyclopropanecarboxylic acid, sodium salt]

SMILES: Cc1noc(-c2ccc(CSCCC(=O)O)cc2)c1NC(=O)OC(C)c1ccccc1Cl (stereo not shown) [Ki16425]
invasion activity [4]: blocked
development of renal fibrosis in UUO mice (renal fibrosis): closely resembled the LPA1 (−/−) mice
in vitro migration [5]: effectively blocked

IC50 (Human LPA1): < 200 nM
IC50 (Human LPA3): > 1000 nM
SMILES: Cc1noc(-c2ccc(-c3ccc(C4(C(=O)O)CC4)cc3)cc2)c1NC(=O)O[C@@H](C)c1ccccc1 [S-enantiomer of Compound 1]
